Four compounds from US6344451B1, “Pyrrolobenzodiazepine carboxyamide vasopressin agonists” (American Home Products, priority 1999, dated 2002) can be followed below.

The target of this experiment is T1, Vasopressin V2 (Rattus norvegicus, UniProt Q00788).
T1 construct: Male or female normotensive Sprague-Dawley rats; from tissue; host or cells: whole living Sprague-Dawley rat (V2 receptors of the kidney collecting ducts)
Description: Vasopressin V2 agonist effects of test compounds in normal conscious water-loaded rats. The format is in vivo. As to conditions: oral dose of 10 mg/Kg, urine collected for four hours, Sprague-Dawley (CD) rats; for Changes in Urinary Osmolality: osmolality changes expressed as percent of control; for Urine Volume (% decrease): percent decrease in urine volume vs. control. The source says:
Vasopressin V2 Agonist Effects of Test Compounds in Normal Conscious Water-Loaded Rats:
Male or female normotensive Sprague-Dawley rats (Charles River Laboratories, Inc., Kingston, N.Y.) of 350-500 g body weight were supplied with standard rodent diet (Purina Rodent Lab. Chow 5001) and water ad libitum. On the day of test, rats were placed individually into metabolic cages equipped with devices to separate the feces from the urine and containers for collection of urine. A test compound or a reference agent was given at an oral dose of 10 mg/Kg in a volume of 10 mL/Kg. The vehicle used was 20% dimethylsulfoxide (DMSO) in 2.5% preboiled corn starch. Thirty minutes after dosing the test compound, rats were gavaged with water at 30 mL/Kg into the stomach using a feeding needle. During the test, rats were not provided with water or food. Urine was collected for four hours after dosing of the test compound. At the end of four hours, urine volume was measured. Urinary osmolality was determined using a Fiske One-Ten Osmometer (Fiske Associates, Norwood, Mass., 02062) or an Advanced CRYOMATIC Osmometer, Model 3C2 (Advanced Instruments, Norwood, Mass.). Determinations of Na^+, K^+ and Cl^− ion were carried out using ion specific electrodes in a Beckman SYNCHRON EL-ISE Electrolyte System analyzer. The urinary osmolality should increase proportionally. In the screening test, two rats were used for each compound. If the difference in the urine volume of the two rats was greater than 50%, a third rat was used.

Structures are written as SMILES.

T1 sequence (Q00788 whole entry): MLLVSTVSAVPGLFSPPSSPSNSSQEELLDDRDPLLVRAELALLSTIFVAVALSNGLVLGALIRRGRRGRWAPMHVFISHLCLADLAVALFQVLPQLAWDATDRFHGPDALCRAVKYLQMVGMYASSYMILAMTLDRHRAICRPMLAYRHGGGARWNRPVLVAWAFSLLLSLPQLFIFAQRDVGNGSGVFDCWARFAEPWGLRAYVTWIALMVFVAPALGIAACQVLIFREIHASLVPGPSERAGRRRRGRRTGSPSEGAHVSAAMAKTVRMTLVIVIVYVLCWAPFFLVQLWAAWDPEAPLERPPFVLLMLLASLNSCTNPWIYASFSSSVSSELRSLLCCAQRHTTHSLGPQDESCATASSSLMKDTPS

Turning to `O=C(c1ccc2c(c1)CCO2)N1Cc2cccn2Cc2ccccc21` [Example 3, (2,3-Dihvdro-benzofuran-5-yl)-(5H-10.11-dihydro-pyrrolo [2,1-c][1,4]benzodiazepin-10-yl)-methanone], the “Changes in Urinary Osmolality” value is given as 10% of control and the “Urine Volume (% decrease)” value came out at 32 % decrease.
With `Cn1ccc2cc(C(=O)N3Cc4cccn4Cc4ccccc43)ccc21` [Example 1, (5H-10,11-Dihydro-pyrrolo [2,1-c][1,4]benzodiazepin-10-yl)-(1-methyl-1H-indol-5-yl)-methanone], the “Changes in Urinary Osmolality” value is given as 174% of control and the “Urine Volume (% decrease)” value came to 66 % decrease.
Taken in the same sequence, the figures for `O=C(c1ccc2c(c1)OCO2)N1Cc2cccn2Cc2ccccc21` [Example 2, Benzo[1,3]dioxol-5-yl-(5H-10,11-dihydro-pyrrolo [2,1-c][1,4]benzodiazepin-10-yl)-methanone] were 41% of control and 23 % decrease.
On to `O=C(c1ccc2ncsc2c1)N1Cc2cccn2Cc2ccccc21` [Example 4, (Benzothiazol-6-yl)-(5H-10,11-dihydro-pyrrolo[2,1-c][1,4]benzodiazepin-10-yl)-methanone], for which the “Changes in Urinary Osmolality” value is 3% of control and the “Urine Volume (% decrease)” value is 19 % decrease.
